# From ChEMBL document CHEMBL1201862, “PubChem BioAssay data set” (2004)
#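 The compound was tested at five concentrations on cells cultured in 96-well plates, with a 48-hour exposure period. GI50: concentration for 50% inhibition of growth.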 The source made the active and inactive calls. Rule as the data show it: active = GI50 up to about 1.1 µM and inactive = higher.
# Columns and labels:
# Assay in all cases: NCI-60 cell line screen, 48 h
# SNB-19 = test system: SNB-19
# OVCAR-4 = test system: OVCAR-4
# OVCAR-8 = test system: OVCAR-8
# EKVX = test system: EKVX
# HT-29 = test system: HT-29
# PC-3 = test system: PC-3
# Malme-3M = test system: Malme-3M
# UACC-62 = test system: UACC-62
# NCI-H23 = test system: NCI-H23
# COLO 205 = test system: COLO 205
# NCI-H460 = test system: NCI-H460
# HCT-116 = test system: HCT-116
# RPMI-8226 = test system: RPMI-8226
# HCT-15 = test system: HCT-15
# HOP-62 = test system: HOP-62
# UACC-257 = test system: UACC-257
# MDA-MB-231 = test system: MDA-MB-231
# SF-539 = test system: SF-539
# A549 = test system: A549
# HL-60 = test system: HL-60
SMILES,GI50 (SNB-19),GI50 (OVCAR-4),GI50 (OVCAR-8),GI50 (EKVX),GI50 (HT-29),GI50 (PC-3),GI50 (Malme-3M),GI50 (UACC-62),GI50 (NCI-H23),GI50 (COLO 205),GI50 (NCI-H460),GI50 (HCT-116),GI50 (RPMI-8226),GI50 (HCT-15),GI50 (HOP-62),GI50 (UACC-257),GI50 (MDA-MB-231),GI50 (SF-539),GI50 (A549),GI50 (HL-60)
COc1ccc2c(C)cc(N/N=C/c3ccc(OC)c4ccccc34)nc2c1,18.8 µM (inactive),19 µM (inactive),18.5 µM (inactive),17.7 µM (inactive),7.82 µM (inactive),16.9 µM (inactive),17.5 µM (inactive),14.3 µM (inactive),16.5 µM (inactive),16.7 µM (inactive),16.6 µM (inactive),5.35 µM (inactive),2.78 µM (inactive),10.1 µM,18.2 µM (inactive),19.3 µM (inactive),4.91 µM (inactive),15.8 µM (inactive),18.6 µM (inactive),20.8 µM (inactive)
O=C(N[C@@H](Cc1ccccc1)B(O)O)[C@H](Cc1cccc2ccccc12)NC(=O)N1CCOCC1,0.00708 µM (active),0.00454 µM (active),0.0254 µM (active),0.0267 µM (active),0.00239 µM (active),0.00569 µM (active),0.00187 µM (active),0.00248 µM (active),0.00172 µM (active),0.00552 µM (active),0.0215 µM (active),0.000412 µM (active),0.000412 µM (active),0.155 µM,0.00524 µM (active),0.00219 µM (active),0.00267 µM (active),0.000265 µM (active),0.0262 µM (active),< 0.01 µM (active)
CCCCc1ccc(Nc2nc(S)c3ncn(COCCO)c3n2)cc1,31.2 µM (inactive),45.4 µM (inactive),45.4 µM (inactive),60.5 µM (inactive),50.5 µM (inactive),32.9 µM (inactive),23.3 µM (inactive),41.4 µM (inactive),34.4 µM (inactive),20.6 µM (inactive),41.5 µM (inactive),65 µM (inactive),21.3 µM (inactive),> 100 µM,31 µM (inactive),30.4 µM (inactive),15.4 µM (inactive),> 100 µM (inactive),> 100 µM (inactive),25.2 µM (inactive)
CC1OC(OC2C(OC(=O)[C@]34CCC(C)(C)C[C@H]3C3=CC[C@@H]5[C@@]6(C)CC[C@H](OC7OC(CO)C(O)C(O)C7OC7OC(CO)C(O)C(O)C7O)C(C)(C)[C@@H]6CC[C@@]5(C)[C@]3(C)CC4)OCC(O)C2O)C(O)C(OC2OCC(O)C(O)C2O)C1OC1OCC(O)C(OC2OCC(O)C(O)C2O)C1O (stereo not given in full),16.7 µM (inactive),10 µM (inactive),18 µM (inactive),4.34 µM (inactive),4.23 µM (inactive),11.8 µM (inactive),4.46 µM (inactive),13.5 µM (inactive),6.37 µM (inactive),2.77 µM (inactive),69 µM (inactive),8.97 µM (inactive),7.69 µM (inactive),22.7 µM,14 µM (inactive),3.78 µM (inactive),7.6 µM (inactive),67.8 µM (inactive),3.7 µM (inactive),3.94 µM (inactive)
CCCCCCCCCc1cc(O)c(O)cc1CCCCCCCCC,> 10 µM (inactive),> 10 µM (inactive),> 10 µM (inactive),> 10 µM (inactive),> 10 µM (inactive),> 10 µM (inactive),> 10 µM (inactive),> 10 µM (inactive),> 10 µM (inactive),> 10 µM (inactive),> 10 µM (inactive),> 10 µM (inactive),> 10 µM (inactive),> 10 µM,> 10 µM (inactive),> 10 µM (inactive),> 10 µM (inactive),> 10 µM (inactive),> 10 µM (inactive),> 10 µM (inactive)
